Results reported in patent US12696899B2, “Microbiocidal 2-acylamino-thiazole-4-carboxamide derivatives” (SYNGENTA CROP PROTECTION AG, priority 2018, dated 2026).
Read-outs that look alike come from different tables or passages of the source.

Columns and labels:
[1] = Photostability, thin-film irradiation in Atlas Suntest xenon lamp; assay type: physicochemical; settings: thin film on glass, Suntest 750 W/m2; time for first 50% loss
Experimental: Photostability tests were carried out by irradiation of thin-film deposits of compounds and formulations on glass surfaces, using a filtered xenon lamp system (Atlas Suntest) which reproduces the spectrum and intensity of sunlight. The spectral output power of the Suntest was set to 750 W/m2, which is the typical daily maximum irradiance level at noon (UK, midsummer).
Test compounds were typically dissolved in HPLC grade methanol to give 1 g/L stock solutions. Alternatively, formulated compounds were suspended in water at the same concentration. 2 μL droplets of test solutions were spotted onto microscope cover slips in a 3D printed holder, allowed to dry then irradiated in the Suntest for varying times. Cover slips were then removed from the Suntest and placed in 4 dram vials; 1 mL of wash solvent (typically 30:70 acetonitrile: 0.2% aqueous formic acid) was added, and the vials shaken to extract compounds into solution. Solutions were analysed by reverse phase HPLC, typically using a Waters UPLC system with Photodiode Array (PDA) and Waters columns (BEH C18, 100×2.1 mm×1.7 μm) using mixed aqueous:acetonitrile mobile phase, acidifed with 0.2% formic acid. Peak detection was at the optimum wavelength for each candidate compound and PDA peak areas were used for quantification. Plots of % loss versus time were used to estimate T50 values, being the time taken for first 50% loss of test compound.

physchem = settings: pH 7
[2] = pH 7.2
Fusarium culmorum = assay type: in vivo; settings: 200 ppm; wheat spikelet preventative; compared to untreated control
[3] = tested on: Magnaporthe grisea (Pyricularia oryzae); test: whole plant or invertebrate; assay type: in vivo; settings: foliar, read-out: control of Magnaporthe grisea
Pyrenophora teres = test: Example B15 Pyrenophora teres/barley/leaf disc preventative (net blotch); assay type: in vivo; settings: foliar, barley leaf disc preventative, compared to untreated control
[4] = tested on: Gibberella zeae (Fusarium graminearum); assay type: in vivo; settings: 200 ppm; wheat spikelet preventative; compared to untreated control
[5] = Solubility in aqueous buffer (10 mM mixed phosphate, pH 7.20)
[6] = Octanol-water partition coefficient (Log P) by HPLC on octanol-coated mini-columns; settings: pH 7

| Structure (SMILES) | Photostability T50 [1] | chromatographic logP (physchem) | Solubility in water [2] | also measured |
| --- | --- | --- | --- | --- |
| Cc1sc(N(C=O)c2cc(F)nc(F)c2)nc1C(=O)NC1CCC1(C)C (stereo not shown) [I.b.595, 2-[(2,6-difluoro-4-pyridyl)-formyl-amino]-N-(2,2-dimethylcyclobutyl)-5-methyl-thiazole-4-carboxamide] | 2.8 h | 3.61 | 2.5 ppm | – |
| CC(=O)N(c1cc(F)nc(F)c1)c1nc(C(=O)NC2CCC2(C)C)c(C)s1 (stereo not shown) [I.b.596, 2-[acetyl-(2,6-difluoro-4-pyridyl)amino]-N-(2,2-dimethylcyclobutyl)-5-methyl-thiazole-4-carboxamide] | 5.5 h | 3.8 | 3.7 ppm | – |
| COCC(=O)N(c1cc(F)nc(F)c1)c1nc(C(=O)NC2CCC2(C)C)c(C)s1 (stereo not shown) [I.b.600, 2-[(2,6-difluoro-4-pyridyl)-(2-methoxyacetyl)amino]-N-(2,2-dimethylcyclobutyl)-5-methyl-thiazole-4-carboxamide] | 2.8 h | 3.35 | 18 ppm | control of Fusarium culmorum (Fusarium culmorum): at least 80% |
| CCOC(=O)C(=O)N(c1cc(F)nc(F)c1)c1nc(C(=O)NC2CCC2(C)C)c(C)s1 (stereo not shown) [I.b.612, ethyl 2-[(2,6-difluoro-4-pyridyl)-[4-[(2,2-dimethylcyclobutyl)carbamoyl]-5-methyl-thiazol-2-yl]amino]-2-oxo-acetate] | 5.5 h | 4.34 | – | – |
| COCC(=O)N(c1cc(F)nc(F)c1)c1nc(C(=O)NC2CCC23CCCC3)c(C)s1 (stereo not shown) [I.c.600, 2-[(2,6-difluoro-4-pyridyl)-(2-methoxyacetyl)amino]-5-methyl-N-spiro[3.4]octan-3-yl-thiazole-4-carboxamide] | – | – | – | pest or weed control at 200 ppm [3]: ≥ 80%; pest or weed control at 200 ppm (Pyrenophora teres): ≥ 80% |
| Cc1sc(Nc2cc(F)nc(F)c2)nc1C(=O)NC1CCC1(C)C (stereo not shown) [Compound E-0, 2-[(2,6-difluoro-4-pyridyl)amino]-N-(2,2-dimethylcyclobutyl)-5-methyl-thiazole-4-carboxamide, reference compound] | 3.5 h | – | 0.70 ppm | – |
| COC(=O)CC(=O)N(c1cc(F)nc(F)c1)c1nc(C(=O)NC2CCC2(C)C)c(C)s1 (stereo not shown) [I.b.607, methyl 3-[(2,6-difluoro-4-pyridyl)-[4-[(2,2-dimethylcyclobutyl)carbamoyl]-5-methyl-thiazol-2-yl]amino]-3-oxo-propanoate] | 4.4 h | 3.59 | 12 ppm | control of Gibberella zeae [4]: at least 80% |
| Cc1sc(N(C(=O)Oc2ccccc2)c2cc(F)nc(F)c2)nc1C(=O)NC1CCC1(C)C (stereo not shown) [I.b.616, phenyl N-(2,6-difluoro-4-pyridyl)-N-[4-[(2,2-dimethylcyclobutyl)carbamoyl]-5-methyl-thiazol-2-yl]carbamate] | 18 h | – | – | Solubility in water [5]: 0.10 ppm; chromatographic logP [6]: 5.34; Solubility in heptane (Solubility in heptane): 673 ppm |
| CCOC(=O)N(c1cc(F)nc(F)c1)c1nc(C(=O)NC2CCC2(C)C)c(C)s1 (stereo not shown) [I.b.599, ethyl N-(2,6-difluoro-4-pyridyl)-N-[4-[(2,2-dimethylcyclobutyl)carbamoyl]-5-methyl-thiazol-2-yl]carbamate] | 11 h | 4.58 | 1.0 ppm | – |
| COC(=O)N(c1cc(F)nc(F)c1)c1nc(C(=O)NC2CCC2(C)C)c(C)s1 (stereo not shown) [I.b.598, methyl N-(2,6-difluoro-4-pyridyl)-N-[4-[(2,2-dimethylcyclobutyl)carbamoyl]-5-methyl-thiazol-2-yl]carbamate] | 6.2 h | – | – | Solubility in water [5]: 1.4 ppm; chromatographic logP [6]: 4.21; Solubility in heptane (Solubility in heptane): 1155 ppm |
| Cc1sc(N(C(=O)c2ccco2)c2cc(F)nc(F)c2)nc1C(=O)NC1CCC1(C)C (stereo not shown) [I.b.614, 2-[(2,6-difluoro-4-pyridyl)-(furan-2-carbonyl)amino]-N-(2,2-dimethylcyclobutyl)-5-methyl-thiazole-4-carboxamide] | 14 h | 4.61 | 0.054 ppm | – |
